The nature of the data set: clinical. Details: species or system children with CPP. As to conditions: human, in vivo, sc, 45 mg. On the procedure: All samples were processed by a central laboratory (Syneos Health [formerly […] Health Clinique Inc.], Canada). A validated bioanalytical LC-MS/MS method with an LLOD of 0.025 ng/mL was used to measure serum leuprolide concentrations.

In turn, `CCNC(=O)[C@@H]1CCCN1C(=O)[C@H](CCCNC(=N)N)NC(=O)[C@H](CC(C)C)NC(=O)[C@@H](CC(C)C)NC(=O)[C@H](Cc1ccc(O)cc1)NC(=O)[C@H](CO)NC(=O)[C@H](Cc1c[nH]c2ccccc12)NC(=O)[C@H](Cc1c[nH]cn1)NC(=O)[C@@H]1CCC(=O)N1` [leuprolide] returned a maximum concentration (Cmax) of 212 ng/mL and a level at 672 h of 0.63 ng/mL. The molecule also had an AUC (burst phase) of 938 ng·h/mL. For the same molecule, the AUC (plateau phase) was 42300 ng·h/mL. Also, the time to peak (Tmax) (T max, burst phase (time at which the Cmax is observed)) was found to be 3.7 h. Further, the time of peak concentration (Tmax) (Time after injection at which leuprolide levels peaked) was 4 h.

A word on the Cmax: it is the maximum level reached in the sampled fluid or tissue. The term AUC denotes the area under the concentration-time curve, a measure of exposure. Low values mean less exposure, high ones more exposure. As usually defined, the Tmax is the time from dosing to the highest level.

The record behind these values is publication PMC7442270, “Phase 3 Trial of a Small-volume Subcutaneous 6-Month Duration Leuprolide Acetate Treatment for Central Precocious Puberty” (The Journal of Clinical Endocrinology and Metabolism, 2020).
